Values quoted from earlier work, collected in paper PMC9835671 (The Pediatric Infectious Disease Journal, 2022).
Converted amounts (≈) assume the structure as drawn. Read-outs that look alike come from different tables or passages of the source.

Experiments:
S aureus [1] = conditions: adult popPK model; 1000-mg (double-dose) and 1500-mg (single-dose) doses; MIC ≤2 mg/L
S aureus [2] = conditions: neutropenic murine thigh infection model
[3] = adults
ABSSSI = conditions: for Clinical response: microbiological ITT population
S aureus [4] = system: S aureus
serum albumin = conditions: intravenously administered

Compound: CN[C@H]1C(=O)N[C@@H]2Cc3ccc(cc3)Oc3cc4cc(c3O[C@@H]3O[C@H](C(=O)O)[C@@H](O)[C@H](O)[C@H]3NC(=O)CCCCCCCCC(C)C)Oc3ccc(cc3Cl)[C@@H](O)[C@@H]3NC(=O)[C@H](NC(=O)[C@@H]4NC(=O)[C@@H](NC2=O)c2cc(cc(O)c2Cl)Oc2cc1ccc2O)c1ccc(O)c(c1)-c1c(O[C@H]2O[C@H](CO)[C@@H](O)[C@H](O)[C@@H]2O)cc(O)cc1[C@@H](C(=O)NCCCN(C)C)NC3=O [dalbavancin]
- simulated patients predicted to achieve the stasis target (S aureus [1]): > 99%
- 24-hour fAUC/MIC target for bacterial stasis (S aureus [2]): 27.1 h
- terminal elimination half-life (t1/2) [3]: > 14 days
- Clinical response (ABSSSI; double-dose regimen, end-of-treatment): 97.3%
- Clinical response (ABSSSI; double-dose regimen, follow-up): 97.3%
- Clinical response (ABSSSI; single-dose regimen, end-of-treatment): 94.8%
- Clinical response (ABSSSI; single-dose regimen, follow-up): 97.4%
- patients who achieved a clinical cure (ABSSSI; test-of-cure): > 96%
- CLSI susceptibility breakpoint (S aureus [4]; Clinical and Laboratory Standards Institute): 0.25 µg/mL
- MIC90 (S aureus [4]; against S aureus): 0.03 µg/mL (≈ 0.0165 µM)
- bound to serum albumin (serum albumin): ~ 93%
- unbound form (serum albumin): 7%
